# Experimental data reported in PubChem BioAssay (NCI).
#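 Results reflect a 48-hour exposure of cells in 96-well plates to compound at five concentrations. GI50 = concentration required for 50% inhibition of growth. Definition used: TGI = concentration required for complete inhibition of growth.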
# What was measured:
# Assay in all cases: DTP human tumour cell line panel, 48 h
# [1] = tested on: RPMI-8226 leukemia
# [2] = tested on: 786-0 renal
# [3] = tested on: NCI-H23 lung
# [4] = tested on: HS 578T breast
# [5] = tested on: CAKI-1 renal
# [6] = tested on: RXF 393 renal
# [7] = tested on: SNB-19 CNS
# [8] = tested on: SW-620 colon
# [9] = tested on: K-562 leukemia
# [10] = tested on: HOP-62 NSCLC
# [11] = tested on: ACHN renal
# [12] = tested on: UO-31 renal
# [13] = tested on: TK-10 renal
# [14] = tested on: CCRF-CEM leukemia
# [15] = tested on: NCI/ADR-RES ovarian
# [16] = tested on: SR leukemia
# [17] = tested on: U251 CNS
# [18] = tested on: OVCAR-8 ovarian
# [19] = tested on: HL-60(TB) leukemia
# [20] = tested on: NCI-H460 lung
# [21] = tested on: SK-MEL-2 melanoma
# [22] = tested on: KM12 colon
# [23] = tested on: SF-295 CNS
# [24] = tested on: LOX IMVI melanoma
# [25] = tested on: OVCAR-5 ovarian
# [26] = tested on: HCT-116 colon
# [27] = tested on: BT-549 breast
# [28] = tested on: OVCAR-3 ovarian
# [29] = tested on: COLO 205 colon
# [30] = tested on: A549 NSCLC
# [31] = tested on: SNB-75 CNS
# [32] = tested on: M14 melanoma
# [33] = tested on: SF-539 CNS
# [34] = tested on: HCC-2998 colon
# [35] = tested on: EKVX NSCLC
# [36] = tested on: SK-MEL-5 melanoma
# [37] = tested on: MOLT-4 leukemia
# [38] = tested on: SF-268 CNS
# [39] = tested on: SN12C renal
# [40] = tested on: HOP-92 NSCLC
# [41] = tested on: UACC-62 melanoma
# [42] = tested on: SK-OV-3 ovarian
# [43] = tested on: SK-MEL-28 melanoma
# [44] = tested on: HT29 colon
# [45] = tested on: OVCAR-4 ovarian
# [46] = tested on: MDA-MB-231 breast
# [47] = tested on: NCI-H226 lung
# [48] = tested on: HCT-15 colon
# [49] = tested on: MCF7 breast
# [50] = tested on: NCI-H522 lung
# [51] = tested on: IGROV1 ovarian
# [52] = tested on: PC-3 prostate
# [53] = tested on: MALME-3M melanoma
# [54] = tested on: A498 renal
# [55] = tested on: UACC-257 melanoma
# [56] = tested on: MDA-MB-435
# [57] = tested on: T-47D breast
# [58] = tested on: DU-145 prostate
smiles,measurement,setting,value
CCN(CC)CCOc1ccc(C(=C(C)c2ccc(OC)cc2)c2ccc(OCCN(CC)CC)cc2)cc1,GI50,[1],1.14 µM
same,TGI,[1],3.24 µM
same,GI50,[2],0.761 µM
same,TGI,[2],1.8 µM
same,GI50,[3],1.47 µM
same,TGI,[3],5.52 µM
same,GI50,[4],1.09 µM
same,TGI,[4],3.15 µM
same,GI50,[5],0.978 µM
same,TGI,[5],2.3 µM
same,GI50,[6],0.738 µM
same,TGI,[6],1.5 µM
same,GI50,[7],1.61 µM
same,TGI,[7],5.39 µM
same,GI50,[8],0.936 µM
same,TGI,[8],2.02 µM
same,GI50,[9],0.874 µM
same,TGI,[9],3.8 µM
same,GI50,[10],1.44 µM
same,TGI,[10],4.76 µM
same,GI50,[11],1.14 µM
same,TGI,[11],2.75 µM
same,GI50,[12],0.789 µM
same,TGI,[12],1.5 µM
same,GI50,[13],1.15 µM
same,TGI,[13],3.28 µM
same,GI50,[14],1.26 µM
same,TGI,[14],5.87 µM
same,GI50,[15],1.7 µM
same,TGI,[15],6.5 µM
same,GI50,[16],0.289 µM
same,TGI,[16],50 µM
same,GI50,[17],0.876 µM
same,TGI,[17],2 µM
same,GI50,[18],1.68 µM
same,TGI,[18],6.37 µM
same,GI50,[19],1.27 µM
same,TGI,[19],2.86 µM
same,GI50,[20],1.44 µM
same,TGI,[20],4.47 µM
same,GI50,[21],1.03 µM
same,TGI,[21],2.14 µM
same,GI50,[22],1.8 µM
same,TGI,[22],6.95 µM
same,GI50,[23],0.883 µM
same,TGI,[23],1.75 µM
same,GI50,[24],0.53 µM
same,TGI,[24],1.22 µM
same,GI50,[25],1.57 µM
same,TGI,[25],5.68 µM
same,GI50,[26],0.614 µM
same,TGI,[26],1.6 µM
same,GI50,[27],1.03 µM
same,TGI,[27],2.92 µM
same,GI50,[28],1.24 µM
same,TGI,[28],3.62 µM
same,GI50,[29],1.06 µM
same,TGI,[29],2.35 µM
same,GI50,[30],1.52 µM
same,TGI,[30],6.02 µM
same,GI50,[31],7.59 µM
same,TGI,[31],17.5 µM
same,GI50,[32],0.936 µM
same,TGI,[32],1.89 µM
same,GI50,[33],0.875 µM
same,TGI,[33],1.65 µM
same,GI50,[34],1.05 µM
same,TGI,[34],2.39 µM
same,GI50,[35],2.01 µM
same,TGI,[35],8.15 µM
same,GI50,[36],0.873 µM
same,TGI,[36],1.63 µM
same,GI50,[37],1.34 µM
same,TGI,[37],5.25 µM
same,GI50,[38],1.21 µM
same,TGI,[38],3.43 µM
same,GI50,[39],0.972 µM
same,TGI,[39],2.4 µM
same,GI50,[40],0.627 µM
same,TGI,[40],1.89 µM
same,GI50,[41],0.887 µM
same,TGI,[41],1.7 µM
same,GI50,[42],1.27 µM
same,TGI,[42],3.17 µM
same,GI50,[43],0.856 µM
same,TGI,[43],1.62 µM
same,GI50,[44],0.665 µM
same,TGI,[44],2.03 µM
same,GI50,[45],1.06 µM
same,TGI,[45],2.46 µM
same,GI50,[46],0.973 µM
same,TGI,[46],2.08 µM
same,GI50,[47],2.43 µM
same,TGI,[47],10.3 µM
same,GI50,[48],0.731 µM
same,TGI,[48],1.87 µM
same,GI50,[49],0.275 µM
same,TGI,[49],1.1 µM
same,GI50,[50],1.01 µM
same,TGI,[50],2.24 µM
same,GI50,[51],1.29 µM
same,TGI,[51],3.1 µM
same,GI50,[52],1.18 µM
same,TGI,[52],4.29 µM
same,GI50,[53],0.832 µM
same,TGI,[53],1.64 µM
same,GI50,[54],0.997 µM
same,TGI,[54],2.47 µM
same,GI50,[55],0.942 µM
same,TGI,[55],1.88 µM
same,GI50,[56],0.903 µM
same,TGI,[56],1.76 µM
same,GI50,[57],0.747 µM
same,TGI,[57],2.07 µM
same,GI50,[58],2.09 µM
same,TGI,[58],8.17 µM
CC(C)(C)c1ccc(C(=O)Nc2sc3c(c2C(N)=O)CCC(O)C3)cc1 (stereo not given),GI50,[1],2 µM
same,TGI,[1],5.42 µM
same,GI50,[2],1.98 µM
same,TGI,[2],6.35 µM
same,GI50,[3],4.16 µM
same,TGI,[3],22.8 µM
same,GI50,[4],4.18 µM
same,TGI,[4],35.1 µM
same,GI50,[5],0.109 µM
same,TGI,[5],3.61 µM
same,GI50,[6],1.77 µM
same,TGI,[6],4.93 µM
same,GI50,[7],8.94 µM
same,TGI,[7],21.2 µM
same,GI50,[8],0.597 µM
same,TGI,[8],11 µM
same,GI50,[9],0.0507 µM
same,TGI,[9],1.22 µM
same,GI50,[10],1.42 µM
same,TGI,[10],8.65 µM
same,GI50,[11],0.321 µM
same,TGI,[11],13.2 µM
same,GI50,[12],2.03 µM
same,TGI,[12],12.8 µM
same,GI50,[13],4.37 µM
same,TGI,[13],18.4 µM
same,GI50,[14],2.01 µM
same,TGI,[14],10.6 µM
same,GI50,[15],2.33 µM
same,TGI,[15],31.7 µM
same,GI50,[16],0.312 µM
same,TGI,[16],4.87 µM
same,GI50,[17],3.95 µM
same,TGI,[17],19.6 µM
same,GI50,[18],2.64 µM
same,TGI,[18],87.4 µM
same,GI50,[19],1.77 µM
same,TGI,[19],15 µM
same,GI50,[20],0.493 µM
same,TGI,[20],10.6 µM
same,GI50,[21],4.46 µM
same,TGI,[21],19 µM
same,GI50,[22],0.365 µM
same,TGI,[22],3.15 µM
same,GI50,[23],0.582 µM
same,TGI,[23],2.54 µM
same,GI50,[24],0.228 µM
same,TGI,[24],1.75 µM
same,GI50,[25],3.14 µM
same,TGI,[25],17.4 µM
same,GI50,[26],1.14 µM
same,TGI,[26],11.5 µM
same,GI50,[27],3.13 µM
same,TGI,[27],14.2 µM
same,GI50,[28],3.11 µM
same,TGI,[28],13.3 µM
same,GI50,[29],0.377 µM
same,TGI,[29],1.72 µM
same,GI50,[30],2.23 µM
same,TGI,[30],33 µM
same,GI50,[31],3.18 µM
same,TGI,[31],15.1 µM
same,GI50,[32],0.995 µM
same,TGI,[32],4.71 µM
same,GI50,[33],1.39 µM
same,TGI,[33],7.19 µM
same,GI50,[34],1.05 µM
same,TGI,[34],6.78 µM
same,GI50,[35],3.52 µM
same,TGI,[35],18.5 µM
same,GI50,[36],0.908 µM
same,TGI,[36],3.7 µM
same,GI50,[37],1.65 µM
same,TGI,[37],11.5 µM
same,GI50,[38],4.39 µM
same,TGI,[38],17.9 µM
same,GI50,[39],6.33 µM
same,TGI,[39],22.2 µM
same,GI50,[40],2.74 µM
same,TGI,[40],16.5 µM
same,GI50,[41],0.333 µM
same,TGI,[41],19.9 µM
same,GI50,[42],3.44 µM
same,TGI,[42],19.2 µM
same,GI50,[43],2.95 µM
same,TGI,[43],15.1 µM
same,GI50,[44],0.569 µM
same,TGI,[44],3.23 µM
same,GI50,[45],0.747 µM
same,TGI,[45],17.1 µM
same,GI50,[46],2.17 µM
same,TGI,[46],5.32 µM
same,GI50,[47],2.96 µM
same,TGI,[47],27 µM
same,GI50,[48],0.729 µM
same,TGI,[48],10.4 µM
same,GI50,[49],0.753 µM
same,TGI,[49],10.5 µM
same,GI50,[51],3.24 µM
same,TGI,[51],18.5 µM
same,GI50,[52],2.77 µM
same,TGI,[52],16.4 µM
same,GI50,[53],4.16 µM
same,TGI,[53],17 µM
same,GI50,[54],1.46 µM
same,TGI,[54],4.79 µM
same,GI50,[55],1.27 µM
same,TGI,[55],10.1 µM
same,GI50,[56],0.422 µM
same,TGI,[56],15.6 µM
same,GI50,[57],0.625 µM
same,TGI,[57],14.8 µM
same,GI50,[58],2.7 µM
same,TGI,[58],17.4 µM
